# Source: the supplement of paper PMC11061612
# Tests used:
# Assay in all cases: combination Emax (second highest fraction inhibited in the dose matrix, 72 h); higher = more inhibition; extreme values may be limits of the assay
# [1] = test system: CGTH-W-1 (Thyroid Gland Carcinoma)
# In short: (§1)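 After 24 hours at 37°C and 5% CO2 in 1536-well plates, cells in DMEM/F12 or RPMI plus 10% FBS received two-drug dose matrices for 72 hours. Viability came from CellTiter-Glo 2.0 luminescence and was scaled as inhibition, anchored at 0 by vehicle wells and at 1 by blank wells. Combination Emax is taken as the second-highest inhibition in the matrix, and Bliss excess as the observed combination effect less EA + EB − EA·EB, with EA and EB the single-agent effects.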
# [2] = test system: KYSE-220 (Esophageal Squamous Cell Carcinoma)
# In short: as §1
# [3] = test system: 22RV1 (Prostate Carcinoma)
# In short: as §1
# [4] = test system: NCI-H1651 (Lung Adenocarcinoma)
# In short: as §1
# [5] = test system: A2780 (Ovarian Carcinoma)
# In short: as §1
# [6] = test system: NCI-H1703 (Squamous Cell Lung Carcinoma)
# In short: as §1
# [7] = test system: A101D (Melanoma)
# In short: as §1
smiles,measurement,setting,value
"Cc1c2c(nn1C)CSCc1cc(n(C)n1)CSc1cc(c3ccccc3c1)OCCCc1c(C(=O)O)n(C)c3c-2c(Cl)ccc13 [AZD5991] + Nc1ccn([C@@H]2O[C@H](CO)[C@@H](O)C2(F)F)c(=O)n1 [Gemcitabine] (first compound max 1 µM, 7x7, partner max 0.3 µM)",combination Emax,[1],0.688
same,combination Emax,[2],0.724
same,combination Emax,[3],0.886
same,combination Emax,[4],0.486
same,combination Emax,[5],1
same,combination Emax,[6],0.954
"Cc1c2c(nn1C)CSCc1cc(n(C)n1)CSc1cc(c3ccccc3c1)OCCCc1c(C(=O)O)n(C)c3c-2c(Cl)ccc13 [AZD5991] + CC(=O)O[C@H]1C(=O)[C@@]2(C)[C@H]([C@H](OC(=O)c3ccccc3)[C@]3(O)C[C@H](OC(=O)[C@H](O)[C@@H](NC(=O)c4ccccc4)c4ccccc4)C(C)=C1C3(C)C)[C@]1(OC(C)=O)CO[C@@H]1C[C@@H]2O [Paclitaxel] (first compound max 1 µM, 7x7, partner max 3 µM)",combination Emax,[1],0.59
same,combination Emax,[2],0.745
same,combination Emax,[3],0.912
same,combination Emax,[4],0.912
same,combination Emax,[5],1
same,combination Emax,[6],0.993
"CC1(C)CCC(CN2CCN(c3ccc(C(=O)NS(=O)(=O)c4ccc(NCC5CCOCC5)c([N+](=O)[O-])c4)c(Oc4cnc5[nH]ccc5c4)c3)CC2)=C(c2ccc(Cl)cc2)C1 [Venetoclax] + CS(=O)(=O)CCNCc1ccc(-c2ccc3ncnc(Nc4ccc(OCc5cccc(F)c5)c(Cl)c4)c3c2)o1 [Lapatinib] (first compound max 1 µM, 7x7, partner max 10 µM)",combination Emax,[1],0.115
same,combination Emax,[2],0.917
same,combination Emax,[3],0.266
same,combination Emax,[4],0.129
same,combination Emax,[5],0.478
same,combination Emax,[6],0.385
"O=C(c1cc(Cc2n[nH]c(=O)c3ccccc23)ccc1F)N1CCN(C(=O)C2CC2)CC1 [Olaparib] + Cc1c2c(nn1C)CSCc1cc(n(C)n1)CSc1cc(c3ccccc3c1)OCCCc1c(C(=O)O)n(C)c3c-2c(Cl)ccc13 [AZD5991] (first compound max 10 µM, 7x7, partner max 1 µM)",combination Emax,[1],0.0485
same,combination Emax,[2],0.166
same,combination Emax,[3],0.519
same,combination Emax,[4],0.293
same,combination Emax,[5],0.924
same,combination Emax,[6],0.859
"C[C@@H](Oc1cc(-c2cnn(C3CCNCC3)c2)cnc1N)c1c(Cl)ccc(F)c1Cl [Crizotinib] + CC1=C(C(=CC=C1)Cl)NC(=O)C2=CN=C(S2)NC3=CC(=NC(=N3)C)N4CCN(CC4)CCO [Dasatinib] (first compound max 10 µM, 7x7, partner max 2 µM)",combination Emax,[1],0.961
same,combination Emax,[2],0.968
same,combination Emax,[3],0.468
same,combination Emax,[4],0.29
same,combination Emax,[5],0.882
same,combination Emax,[6],0.799
"C[C@@H]1COCCN1c1cc(C2([S@](C)(=N)=O)CC2)nc(-c2ccnc3[nH]ccc23)n1 [AZD6738] + Nc1ccn([C@@H]2O[C@H](CO)[C@@H](O)C2(F)F)c(=O)n1 [Gemcitabine] (first compound max 10 µM, 7x7, partner max 0.3 µM)",combination Emax,[1],0.947
same,combination Emax,[2],0.857
same,combination Emax,[3],0.754
same,combination Emax,[4],0.747
same,combination Emax,[5],0.95
same,combination Emax,[6],0.954
"CS(=O)(=O)CCNCc1ccc(-c2ccc3ncnc(Nc4ccc(OCc5cccc(F)c5)c(Cl)c4)c3c2)o1 [Lapatinib] + Cn1cnc2c(F)c(Nc3ccc(Br)cc3Cl)c(C(=O)NOCCO)cc21 [Selumetinib] (first compound max 10 µM, 7x7, partner max 10 µM)",combination Emax,[1],0.245
same,combination Emax,[2],0.954
same,combination Emax,[3],0.464
same,combination Emax,[4],0.151
same,combination Emax,[5],0.684
same,combination Emax,[6],0.482
"O=C(c1cc(Cc2n[nH]c(=O)c3ccccc23)ccc1F)N1CCN(C(=O)C2CC2)CC1 [Olaparib] + CN(CC[C@H](CSC1=CC=CC=C1)NC2=C(C=C(C=C2)S(=O)(=O)NC(=O)C3=CC=C(C=C3)N4CCC(CC4)[C@H](C5=CC=CC=C5C6=CC=C(C=C6)Cl)O)S(=O)(=O)C(F)(F)F)CCO [AZD4320] (first compound max 10 µM, 7x7, partner max 1 µM)",combination Emax,[1],0.0708
same,combination Emax,[2],0.267
same,combination Emax,[3],0.183
same,combination Emax,[4],0.299
same,combination Emax,[5],0.511
same,combination Emax,[6],0.19
"CS(=O)(=O)CCNCc1ccc(-c2ccc3ncnc(Nc4ccc(OCc5cccc(F)c5)c(Cl)c4)c3c2)o1 [Lapatinib] + NC1(c2ccc(-c3nc4ccn5c(=O)[nH]nc5c4cc3-c3ccccc3)cc2)CCC1 [MK-2206] (first compound max 10 µM, 7x7, partner max 10 µM)",combination Emax,[7],0.967
same,combination Emax,[1],0.894
same,combination Emax,[2],0.981
same,combination Emax,[3],0.835
same,combination Emax,[4],0.442
same,combination Emax,[5],0.909
same,combination Emax,[6],0.756
"O=C(c1cc(Cc2n[nH]c(=O)c3ccccc23)ccc1F)N1CCN(C(=O)C2CC2)CC1 [Olaparib] + COc1nnc2ccc(N3CCC(c4ccc(OCCN5CCN(C)C(=O)[C@H]5C)cc4)CC3)nn12 [AZD5153] (first compound max 10 µM, 7x7, partner max 1 µM)",combination Emax,[1],0.218
same,combination Emax,[2],0.558
same,combination Emax,[3],0.546
same,combination Emax,[4],0.367
same,combination Emax,[5],0.774
same,combination Emax,[6],0.571
"Cc1c2c(nn1C)CSCc1cc(n(C)n1)CSc1cc(c3ccccc3c1)OCCCc1c(C(=O)O)n(C)c3c-2c(Cl)ccc13 [AZD5991] + CS(=O)(=O)CCNCc1ccc(-c2ccc3ncnc(Nc4ccc(OCc5cccc(F)c5)c(Cl)c4)c3c2)o1 [Lapatinib] (first compound max 1 µM, 7x7, partner max 10 µM)",combination Emax,[1],0.221
same,combination Emax,[2],0.933
same,combination Emax,[3],0.55
same,combination Emax,[4],0.307
same,combination Emax,[5],0.933
same,combination Emax,[6],0.935
"C=CCn1c(=O)c2cnc(Nc3ccc(N4CCN(C)CC4)cc3)nc2n1-c1cccc(C(C)(C)O)n1 [AZD1775] + Nc1ccn([C@@H]2O[C@H](CO)[C@@H](O)C2(F)F)c(=O)n1 [Gemcitabine] (first compound max 1 µM, partner max 0.3 µM)",combination Emax,[1],0.761
same,combination Emax,[2],0.793
same,combination Emax,[3],0.744
same,combination Emax,[4],0.762
same,combination Emax,[5],0.963
same,combination Emax,[6],0.984
"C=CCn1c(=O)c2cnc(Nc3ccc(N4CCN(C)CC4)cc3)nc2n1-c1cccc(C(C)(C)O)n1 [AZD1775] + CCc1c2c(nc3ccc(O)cc13)-c1cc3c(c(=O)n1C2)COC(=O)[C@]3(O)CC [SN-38] (first compound max 1 µM, partner max 0.3 µM)",combination Emax,[1],0.703
same,combination Emax,[2],0.909
same,combination Emax,[3],0.732
same,combination Emax,[4],0.86
same,combination Emax,[5],0.94
same,combination Emax,[6],0.992
"CN(CCO)CC[C@H](CSc1ccccc1)Nc1ccc(S(=O)(=O)NC(=O)c2ccc(N3CCC([C@@H](O)c4ccccc4-c4ccc(Cl)cc4)CC3)cc2)cc1S(=O)(=O)C(F)(F)F [AZD4320] + CS(=O)(=O)CCNCc1ccc(-c2ccc3ncnc(Nc4ccc(OCc5cccc(F)c5)c(Cl)c4)c3c2)o1 [Lapatinib] (first compound max 1 µM, 7x7, partner max 10 µM)",combination Emax,[1],0.273
same,combination Emax,[2],0.967
same,combination Emax,[3],0.335
same,combination Emax,[4],0.396
same,combination Emax,[5],0.492
same,combination Emax,[6],0.862
"C[C@@H](Nc1cc(F)cc(F)c1)c1cc(C(=O)N(C)C)cc2c(=O)cc(N3CCOCC3)oc12 [AZD8186] + CC(=O)c1c(C)c2cnc(Nc3ccc(N4CCNCC4)cn3)nc2n(C2CCCC2)c1=O [Palbociclib] (first compound max 10 µM, 7x7, partner max 10 µM)",combination Emax,[1],0.311
same,combination Emax,[2],0.38
same,combination Emax,[3],0.563
same,combination Emax,[4],0.17
same,combination Emax,[5],0.835
same,combination Emax,[6],0.643
"O=C(c1cc(Cc2n[nH]c(=O)c3ccccc23)ccc1F)N1CCN(C(=O)C2CC2)CC1 [Olaparib] + CC1(C)CCC(CN2CCN(c3ccc(C(=O)NS(=O)(=O)c4ccc(NCC5CCOCC5)c([N+](=O)[O-])c4)c(Oc4cnc5[nH]ccc5c4)c3)CC2)=C(c2ccc(Cl)cc2)C1 [Venetoclax] (first compound max 10 µM, 7x7, partner max 1 µM)",combination Emax,[1],0.053
same,combination Emax,[2],0.155
same,combination Emax,[3],0.251
same,combination Emax,[4],0.235
same,combination Emax,[5],0.462
same,combination Emax,[6],0.18
"C[C@@H](Nc1cc(F)cc(F)c1)c1cc(C(=O)N(C)C)cc2c(=O)cc(N3CCOCC3)oc12 [AZD8186] + C1CN(CCC1(C(=O)N[C@@H](CCO)C2=CC=C(C=C2)Cl)N)C3=NC=NC4=C3C=CN4 [AZD5363] (first compound max 10 µM, 7x7, partner max 10 µM)",combination Emax,[1],0.316
same,combination Emax,[2],0.445
same,combination Emax,[3],0.546
same,combination Emax,[4],0.112
same,combination Emax,[5],0.784
same,combination Emax,[6],0.635
"Cc1nc(-c2cn3c(n2)-c2ccc(-c4cnn(C(C)(C)C(N)=O)c4)cc2OCC3)n(C(C)C)n1 [Taselisib] + O=C(Nc1ccc2[nH]nc(-c3ccncc3)c2c1)[C@@H]1CCN(CC(=O)N2CCN(c3ccc(-c4ncccn4)cc3)CC2)C1 [SCH772984] (first compound max 10 µM, 7x7, partner max 5 µM)",combination Emax,[1],0.977
same,combination Emax,[2],0.905
same,combination Emax,[3],0.702
same,combination Emax,[4],0.24
same,combination Emax,[5],0.976
same,combination Emax,[6],0.722
"C[C@@H](Oc1cc(-c2cnn(C3CCNCC3)c2)cnc1N)c1c(Cl)ccc(F)c1Cl [Crizotinib] + Cn1cnc2c(F)c(Nc3ccc(Br)cc3Cl)c(C(=O)NOCCO)cc21 [Selumetinib] (first compound max 10 µM, 7x7, partner max 10 µM)",combination Emax,[1],0.213
same,combination Emax,[2],0.973
same,combination Emax,[3],0.59
same,combination Emax,[4],0.0815
same,combination Emax,[5],0.922
same,combination Emax,[6],0.535
"C[C@@H]1COCCN1c1cc(C2([S@](C)(=N)=O)CC2)nc(-c2ccnc3[nH]ccc23)n1 [AZD6738] + C1CC(C1)(C(=O)[O-])C(=O)[O-].N.N.[Pt+2] [Carboplatin] (first compound max 10 µM, 7x7, partner max 10 µM)",combination Emax,[1],0.302
same,combination Emax,[2],0.827
same,combination Emax,[3],0.553
same,combination Emax,[4],0.641
same,combination Emax,[5],0.81
same,combination Emax,[6],0.932
